“Also recorded” adds a separate entry of the source.
Tests used:
Rsk2 = Rsk2 (Homo sapiens, UniProt P51812); assay: Kinase assay of immunoprecipitated HA-tagged Rsk2 from EGF-stimulated BHK21 cells; format: biochemical; details: 2 μM
Rsk1 = molecular target: T1, Rsk1 (Homo sapiens, UniProt Q15418); assay: Kinase assay of immunoprecipitated HA-tagged Rsk1; format: biochemical; details: 2 μM
T1 construct: expressed in transfected cells; host or cells: BHK21, transiently transfected, EGF-stimulated; anti-HA immunoprecipitate
From the text: (§1) To determine whether the unique adenosine-interacting loop is sufficient for SL0101-1 specificity, the isozyme specificity of SL0101-1 was examined. The primary structure of the NTKDs of the Rsk isoforms 1-3 are highly related, sharing 87% identity and each contain the unique adenosine-interacting loop. HA-tagged proteins were immunoprecipitated from the lysates of EGF-stimulated BHK21 cells transiently transfected with the indicated HA-tagged constructs (Rsk1, Rsk2 and Rsk3). Assays were performed as described immediately above.
(§2) Kinase Assays. Glutathione-S-transferase (GST)-fusion protein (1 g) containing the sequence -[…] (SEQ ID NO: 3, for serine/threonine kinase assays) or -[…] (SEQ ID NO: 4, for tyrosine kinase assays) was adsorbed in the wells of LumiNunc 96-well polystyrene plates (MaxiSorp surface treatment). The wells were blocked with sterile 3% tryptone in phosphate buffered saline and stored at 4° C. for up to 6 months. Kinase (5 nM) in 70 μl of kinase buffer (5 mM -glycerophosphate pH 7.4, 25 mM HEPES pH 7.4, 1.5 mM DTT, 30 mM MgCl2, 0.15 M NaCl) was dispensed into each well. Compound at indicated concentrations or vehicle was added, and reactions were initiated by the addition of 30 μl of ATP for a final ATP concentration of 10 μM unless indicated otherwise. […] All assays measured the initial velocity of reaction. […]

Rsk3 = molecular target: T2, Rsk3 (Homo sapiens, UniProt Q15349); assay: Kinase assay of immunoprecipitated HA-tagged Rsk3; format: biochemical; details: 2 μM
T2 construct: expressed in transfected cells; host or cells: BHK21, transiently transfected, EGF-stimulated; anti-HA immunoprecipitate
From the text: as §1, §2

[1] = system: Ha-ras-transformed NIH/3T3 cells; assay: Proliferation of transformed cells (CellTiter-Glo); format: cell-based
Method: (§3) Cells were treated with vehicle, 50 μM SL0101, or 50 μM PD 98059 (PD 98059 is a MEK-specific inhibitor). Proliferation was measured using Promega CellTiter-Glo™ Luminescent cell viability assay.
(§4) Cell Culture. For proliferation studies cells were seeded at 2500 to 5000 cells per well in 96 well tissue culture plates in the appropriate medium as described by American Type Culture Collection. After 24 hr, the medium was replaced with medium containing compound or vehicle as indicated. Cell viability was measured at indicated time points using CellTiter-Glo™ assay reagent (Promega) according to manufacturer's protocol. For in vivo inhibition studies, cells were seeded at 2.5×10^5 cells/well in 12 well cell culture clusters. After 24 hr, the cells were serum starved for 24 hr then incubated with compound or vehicle for 3 hr prior to a 30 min PDB stimulation. Cells were lysed as previously described (J. Biol. Chem. 273, 13317-13323 (1998)). The lysates were normalized for total protein, electrophoresed and immunoblotted. For cell imaging, Ha-Ras-transformed NIH/3T3 cells were seeded on LABTEK II chamber slides (Nalge) at a density of 1×10^4 cells/well. After 24 hr, fresh medium was added the indicated compounds or vehicle. Images were taken 48 hr after treatment at a magnification of 20×.

parental NIH/3T3 cells = assay: Proliferation of parental cells (CellTiter-Glo); format: cell-based; details: 50 μM, compared to vehicle
Method: as §3, §4

MCF-7 cells = format: cell-based
Method: Cell viability was measured at indicated time points. Proliferation assays were conducted using CellTiter-Glo Luminescent Cell Viability Assay (Promega), performed 44 hrs after treatment for FIGS. 8A &B and at indicated points for FIG. 8C. The data are expressed relative to time 0.
as §4

[2] = system: p140 phosphorylation in MCF-10A cells; assay: PDB-induced p140 phosphorylation in MCF-10A cells (immunoblot); format: cell-based; details: 3 hr pre-incubation, 500 nM PDB 30 min
Method: (§5) Cells were treated with 500 nM PDB for 30 min prior to lysis. Protein concentration of lysates was measured and lysates were electrophoresed, transferred and immunoblotted.
as §4

MAPK, MEK, Raf and PKC = assay: Upstream MAPK pathway kinases in PDB-stimulated cells (Rsk mobility shift, anti-active MAPK); format: cell-based, human
Method: Specific inhibition of Rsk in situ was determined by incubation of MCF-7 cells in the presence or absence of increasing concentrations of extract fraction enriched in SL0101 prior to stimulation of the MAPK pathway with phorbol dibutyrate (PDB). […] Thus, SL0101 is a Rsk-specific inhibitor in situ as well as in vitro and can be used as an investigative tool for defining the function of Rsk in situ.
as §5, §4

[3] = system: p140 phosphorylation in LNCaP cells; assay: p140 phosphorylation in LNCaP line (anti-RPM antibody); format: cell-based, human; details: efficacy paralleled inhibition of LNCaP proliferation
Method: The ability of SL1011-1 to inhibit the proliferation of the androgen-dependent human prostate line, LNCaP was tested. […] To investigate the Rsk signal transduction pathway in the LNCaP line, a phosphospecific antibody to a Rsk phosphorylation motif (RPM) was produced. Only a few downstream effectors of Rsk have been identified and therefore, applicants anticipated that an anti-RPM antibody would be a very effective tool for identifying novel Rsk substrates in vivo. An anti-RPM antibody has previously been reported that recognizes the Rsk substrate, p140, a protein of unknown function. […] All lysates were normalized to each other using an anti-Ran antibody. Ran is used for normalization based on the observations that it is a general housekeeping protein, the activity or expression levels of which are not known to vary in any disease state.

Chain of Rsk2 (P51812 whole entry): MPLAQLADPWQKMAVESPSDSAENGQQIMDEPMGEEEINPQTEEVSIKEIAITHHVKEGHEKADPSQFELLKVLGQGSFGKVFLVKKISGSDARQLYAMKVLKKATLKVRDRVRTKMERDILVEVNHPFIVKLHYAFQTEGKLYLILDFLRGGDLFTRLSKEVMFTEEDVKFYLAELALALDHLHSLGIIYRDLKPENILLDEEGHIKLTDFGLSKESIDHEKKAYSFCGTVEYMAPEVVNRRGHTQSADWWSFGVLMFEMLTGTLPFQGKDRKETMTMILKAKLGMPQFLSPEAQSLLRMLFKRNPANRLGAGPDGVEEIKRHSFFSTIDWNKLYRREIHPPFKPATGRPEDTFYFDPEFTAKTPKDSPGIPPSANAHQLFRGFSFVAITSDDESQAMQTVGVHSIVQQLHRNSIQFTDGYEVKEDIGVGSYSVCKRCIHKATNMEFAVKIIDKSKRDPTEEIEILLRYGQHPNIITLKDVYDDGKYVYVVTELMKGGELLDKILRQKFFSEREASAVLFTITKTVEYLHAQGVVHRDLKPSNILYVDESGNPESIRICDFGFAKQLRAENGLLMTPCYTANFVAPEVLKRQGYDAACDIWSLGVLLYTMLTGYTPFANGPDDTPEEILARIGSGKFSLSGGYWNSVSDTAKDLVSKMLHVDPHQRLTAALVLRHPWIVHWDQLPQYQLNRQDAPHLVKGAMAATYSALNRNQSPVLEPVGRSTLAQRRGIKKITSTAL
T2 sequence (Q15349 whole entry): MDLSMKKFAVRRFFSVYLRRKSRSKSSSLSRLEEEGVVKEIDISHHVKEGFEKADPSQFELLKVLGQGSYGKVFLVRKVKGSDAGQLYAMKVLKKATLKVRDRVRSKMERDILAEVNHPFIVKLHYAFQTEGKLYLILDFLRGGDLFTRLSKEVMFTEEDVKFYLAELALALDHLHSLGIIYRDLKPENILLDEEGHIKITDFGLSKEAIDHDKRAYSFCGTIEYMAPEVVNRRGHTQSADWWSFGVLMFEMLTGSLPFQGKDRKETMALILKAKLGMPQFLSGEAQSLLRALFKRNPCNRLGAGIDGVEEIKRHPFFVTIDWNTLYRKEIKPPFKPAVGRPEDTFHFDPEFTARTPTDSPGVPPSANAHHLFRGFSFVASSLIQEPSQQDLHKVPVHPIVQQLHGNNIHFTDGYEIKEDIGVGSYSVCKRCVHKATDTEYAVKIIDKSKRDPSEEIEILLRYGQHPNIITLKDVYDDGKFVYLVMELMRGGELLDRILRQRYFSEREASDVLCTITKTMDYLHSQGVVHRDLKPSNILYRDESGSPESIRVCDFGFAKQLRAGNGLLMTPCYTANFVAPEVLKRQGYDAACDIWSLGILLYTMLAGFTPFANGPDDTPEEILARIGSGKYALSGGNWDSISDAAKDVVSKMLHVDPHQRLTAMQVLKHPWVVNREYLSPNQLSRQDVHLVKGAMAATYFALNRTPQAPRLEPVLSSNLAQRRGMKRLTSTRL
T1 sequence (Q15418 whole entry): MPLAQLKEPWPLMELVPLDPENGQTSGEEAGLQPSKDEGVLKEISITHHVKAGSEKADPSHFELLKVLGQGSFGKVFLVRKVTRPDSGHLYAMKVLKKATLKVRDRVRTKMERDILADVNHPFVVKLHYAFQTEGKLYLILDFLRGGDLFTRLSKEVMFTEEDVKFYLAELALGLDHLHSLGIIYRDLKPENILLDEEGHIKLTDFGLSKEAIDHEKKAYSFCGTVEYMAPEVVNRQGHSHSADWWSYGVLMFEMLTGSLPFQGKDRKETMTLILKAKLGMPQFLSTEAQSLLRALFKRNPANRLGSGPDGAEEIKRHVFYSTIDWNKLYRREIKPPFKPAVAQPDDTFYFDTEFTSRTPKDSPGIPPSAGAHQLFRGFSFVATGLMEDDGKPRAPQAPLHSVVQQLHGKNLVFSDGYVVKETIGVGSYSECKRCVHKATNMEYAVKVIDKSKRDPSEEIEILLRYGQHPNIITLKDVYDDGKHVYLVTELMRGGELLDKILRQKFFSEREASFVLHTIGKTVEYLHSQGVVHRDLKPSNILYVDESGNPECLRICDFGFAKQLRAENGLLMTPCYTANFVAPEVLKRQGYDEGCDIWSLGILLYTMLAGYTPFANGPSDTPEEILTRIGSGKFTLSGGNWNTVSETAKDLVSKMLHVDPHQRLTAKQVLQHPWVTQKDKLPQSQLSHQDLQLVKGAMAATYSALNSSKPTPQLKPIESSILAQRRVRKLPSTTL

`CC(=O)OC1C(C)OC(Oc2c(-c3ccc(O)cc3)oc3cc(O)cc(O)c3c2=O)C(O)C1OC(C)=O` [SL0101-1, kaempferol 3-α-L-(3″,4″-diacetyl) rhamnopyranoside] was tested, and the Rsk2 activity (Rsk2) was “potently reduced”, the Rsk1 activity (Rsk1) was “potently reduced” and the Rsk3 activity (Rsk3) was “only partially inhibited”. The “reversibility of inhibition of cell proliferation (washout)” value ([1]; 50 μM for 48 hr, then medium replaced, viability 48 hr later) was “resulted in growth of the transformed cells; also recorded: reversible”, the “proliferation of Ha-ras-transformed NIH/3T3 cells” value ([1]; 50 μM, 48 hour time course, 10% fetal calf serum) was “decreased the growth rate; also recorded: halts proliferation; also recorded: inhibits; also recorded: inhibited the proliferation” and the “toxicity to intact cells” value ([1]; Ha-Ras transformed and parental NIH/3T3 cells) was “not toxic”. For the same molecule, the “morphology of transformed cells” value ([1]; images 48 hr after treatment) was “striking morphology changes”, the “proliferation of parental NIH/3T3 cells” value (parental NIH/3T3 cells) was “little effect; also recorded: little influence; also recorded: not the parental cells” and the “cell death of MCF-7 cells” value (MCF-7 cells; 50 μM) was “did not cause cell death”. For the same molecule, the “MCF-7 cell viability compared to vehicle control” value (MCF-7 cells; 50 μM in serum-free medium (serum deprivation)) was “significantly reduced cell viability”, the “proliferation of MCF-7 cells” value (MCF-7 cells; 50 μM, 44 hrs after treatment) was “inhibited proliferation; also recorded: inhibits the proliferation” and the “PDB-induced p140 phosphorylation in MCF-10A cells” value [2] was “prevented”. For the same molecule, the “activation of MAPK (anti-active MAPK antibody)” value (MAPK, MEK, Raf and PKC) was “does not effect”, the “inhibition of upstream kinases PKC, Raf, MEK, MAPK in cells” value (MAPK, MEK, Raf and PKC) was “does not inhibit” and the “phosphorylation of Rsk by MAPK (reduced electrophoretic mobility)” value (MAPK, MEK, Raf and PKC) was “does not effect”. For the same molecule, the “phosphorylation of p140” value [3] was “decrease the phosphorylation”.
